From patent US6552014B2, “Methods of inhibiting platelet activation with selective serotonin reuptake inhibitors” (HeartDrug Research, L.L.C., priority 1999, dated 2003)

Columns and labels:
Assay in all cases: Flow cytometry of platelet antigen expression, platelet rich plasma
Format in all cases: cell-based, human
[1] = system: PECAM-1; details: for PECAM-1 (mean) log fluorescence intensity / PECAM-1 (peak) log fluorescence intensity: PRP
From the text: (§1) For ex vivo assessment of the SSRIs effect on a PAM, a level of a PAM can be assessed by flow cytometry by first obtaining a sample that comprises platelets and then contacting the sample with a platelet activation agonist, such as phorbol myristate acetate (PMA), ADP (adenosine diphosphate), thrombin, collagen, and/or TRAP (thrombin receptor activating peptide), under conditions suitable for activation of platelets in the sample. The sample is in contact with the agonist preferably for a period of time effective to maximally activate the platelets. […] NDMS at 31.1, 64.1 or 143 ng./ml). Then one contacts or stains the samples with a composition that comprises an anti-PAM antibody e.g., having a fluorescent label, preferably in an amount in excess of that required to bind the PAM expressed on the platelets, under conditions suitable for the formation of labeled complexes between the anti-PAM antibody and activated platelets. Then the formation of the complex in the sample is determined (detected or measured). […] The blood-ACD mixture was centrifuged at 1000 r.p.m. for 10 minutes at room temperature. […] The PRP was then centrifuged at 3000 r.p.m. for 10 minutes. […] All cells were then divided into ten plastic capped tubes. Nine portions of washed platelets were incubated with 5 μfluorescein isothiocyanate (FITC)-conjugated antibodies in the dark at +4 °C for 30 minutes, and one part remained unstained and served as a negative control. Surface antigen expression was measured with monoclonal murine anti-human antibodies: CD9 (p24); CD41a (IIb/IIIa, aIIIbb3); CD42b (Ib); CD61(IIIa) (DAKO Corporation, Carpinteria Calif.); CD49b (VLA-2, or a2b1); CD62p (P-selectin); CD31 (PECAM-1); […] The instrument was calibrated daily with fluorescence beads (CaliBRITE; Becton Dickinson) and measured FITC-conjugated fluorescence intensity. All parameters were obtained using four decade logarithmic amplification. The data was collected and stored in list mode, and then analyzed using CELLQuest® (version 1.2.2) software. Procedures are described in detail in (Gurbel, P. […] Serebruany, V. […] Gurbel, P. A. et al., Coron Artery Dis 9: 451-456 (1998) and Serebruany, V. L. et al., Arterioscl Thromb Vasc Biol 19: 153-158 (1999)). The data in table 1 was obtained using the methods described herein, and in particular, in Examples 1 and 2. The levels of various PAMs were assess from samples of human volunteers.

[2] = system: GP Ib; details: for GP Ib (mean) log fluorescence intensity / GP Ib (peak) log fluorescence intensity: PRP
From the text: as §1

[3] = system: GP IIb; details: PRP
From the text: as §1

[4] = system: GP IIIa; details: PRP
From the text: as §1

[5] = system: GP IIb/IIIa; details: for GP IIb/IIIa (mean) log fluorescence intensity / GP IIb/IIIa (peak) log fluorescence intensity: PRP
From the text: as §1

[6] = system: CPIa-IIa; details: for CPIa-IIa (mean) log fluorescence intensity / CPIa-IIa (peak) log fluorescence intensity: PRP
From the text: as §1

[7] = system: CD9; details: for CD9 (mean) log fluorescence intensity / CD9 (peak) log fluorescence intensity: PRP
From the text: as §1

[8] = healthy volunteers, sertraline 18.1 ng/ml
[9] = healthy volunteers, sertraline 44.7 ng/ml
[10] = healthy volunteers, sertraline 85.3 ng/ml
[11] = post-angioplasty patient on aspirin, sertraline 18.1 ng/ml
[12] = post-angioplasty patient on aspirin, sertraline 44.7 ng/ml
[13] = post-angioplasty patient on aspirin, sertraline 85.3 ng/ml
[14] = plasma concentration 85.3 ng/ml, equivalent to 200 mg/daily

Question: Which “PECAM-1 expression, flow cytometric graph (FIG. 10), in words” value ([1]; 44.7, 85.3 ng/mL of sertraline) does the source give for CN[C@H]1CC[C@@H](c2ccc(Cl)c(Cl)c2)c2ccccc21 [sertraline] here?
Answer: dose dependent decrease in the expression

Question: And the “PECAM-1 (mean) log fluorescence intensity” value [1, 8]?
Answer: 117

Question: What about the “PECAM-1 (peak) log fluorescence intensity” value [1, 8] of the same compound?
Answer: 88

Question: And the “PECAM-1 (mean) log fluorescence intensity” value [1, 9]?
Answer: 104

Question: What about the “PECAM-1 (peak) log fluorescence intensity” value [1, 9] of the same compound?
Answer: 71

Question: What about the “PECAM-1 (mean) log fluorescence intensity” value [1, 10] of the same compound?
Answer: 84

Question: And the “PECAM-1 (peak) log fluorescence intensity” value [1, 10]?
Answer: 66

Question: And the “PECAM-1 (mean) log fluorescence intensity” value [1, 11]?
Answer: 94

Question: What about the “PECAM-1 (peak) log fluorescence intensity” value [1, 11] of the same compound?
Answer: 76

Question: And the “PECAM-1 (mean) log fluorescence intensity” value [1, 12]?
Answer: 99

Question: And the “PECAM-1 (peak) log fluorescence intensity” value [1, 12]?
Answer: 98

Question: And the “PECAM-1 (mean) log fluorescence intensity” value [1, 13]?
Answer: 97

Question: What about the “PECAM-1 (peak) log fluorescence intensity” value [1, 13] of the same compound?
Answer: 93

Question: What about the “surface expression of PECAM-1, in words” value [1, 14] of the same compound?
Answer: diminished surface expression

Question: And the “GPIb expression, flow cytometric graph (FIG. 8), in words” value ([2]; 18.1, 44.7 or 85.5 ng/mL of sertraline)?
Answer: dose dependent decrease in the expression

Question: What about the “GP Ib (mean) log fluorescence intensity” value [2, 8] of the same compound?
Answer: 139

Question: What about the “GP Ib (peak) log fluorescence intensity” value [2, 8] of the same compound?
Answer: 125

Question: And the “GP Ib (mean) log fluorescence intensity” value [2, 9]?
Answer: 97

Question: What about the “GP Ib (peak) log fluorescence intensity” value [2, 9] of the same compound?
Answer: 74

Question: And the “GP Ib (mean) log fluorescence intensity” value [2, 10]?
Answer: 65

Question: And the “GP Ib (peak) log fluorescence intensity” value [2, 10]?
Answer: 67

Question: And the “GP Ib (mean) log fluorescence intensity” value [2, 11]?
Answer: 324

Question: What about the “GP Ib (peak) log fluorescence intensity” value [2, 11] of the same compound?
Answer: 305

Question: And the “GP Ib (mean) log fluorescence intensity” value [2, 12]?
Answer: 220

Question: What about the “GP Ib (peak) log fluorescence intensity” value [2, 12] of the same compound?
Answer: 257

Question: And the “GP Ib (mean) log fluorescence intensity” value [2, 13]?
Answer: 182

Question: And the “GP Ib (peak) log fluorescence intensity” value [2, 13]?
Answer: 186

Question: And the “surface expression of GPIb, in words” value [2, 14]?
Answer: diminished surface expression

Question: And the “GP IIb (mean) log fluorescence intensity” value [3, 8]?
Answer: 31

Question: And the “GP IIb (peak) log fluorescence intensity” value [3, 8]?
Answer: 26

Question: And the “GP IIb (mean) log fluorescence intensity” value [3, 9]?
Answer: 31

Question: And the “GP IIb (peak) log fluorescence intensity” value [3, 9]?
Answer: 35

Question: What about the “GP IIb (mean) log fluorescence intensity” value [3, 10] of the same compound?
Answer: 30

Question: What about the “GP IIb (peak) log fluorescence intensity” value [3, 10] of the same compound?
Answer: 22

Question: And the “GP IIb (mean) log fluorescence intensity” value [3, 11]?
Answer: 30

Question: And the “GP IIb (peak) log fluorescence intensity” value [3, 11]?
Answer: 29

Question: What about the “GP IIb (mean) log fluorescence intensity” value [3, 12] of the same compound?
Answer: 27

Question: And the “GP IIb (peak) log fluorescence intensity” value [3, 12]?
Answer: 31

Question: And the “GP IIb (mean) log fluorescence intensity” value [3, 13]?
Answer: 37

Question: And the “GP IIb (peak) log fluorescence intensity” value [3, 13]?
Answer: 34

Question: And the “GP IIIa (mean) log fluorescence intensity” value [4, 8]?
Answer: 1389

Question: What about the “GP IIIa (peak) log fluorescence intensity” value [4, 8] of the same compound?
Answer: 1197

Question: And the “GP IIIa (mean) log fluorescence intensity” value [4, 9]?
Answer: 1197

Question: And the “GP IIIa (peak) log fluorescence intensity” value [4, 9]?
Answer: 1084

Question: And the “GP IIIa (mean) log fluorescence intensity” value [4, 10]?
Answer: 816

Question: What about the “GP IIIa (peak) log fluorescence intensity” value [4, 10] of the same compound?
Answer: 704

Question: What about the “GP IIIa (mean) log fluorescence intensity” value [4, 11] of the same compound?
Answer: 1247

Question: And the “GP IIIa (peak) log fluorescence intensity” value [4, 11]?
Answer: 1114

Question: What about the “GP IIIa (mean) log fluorescence intensity” value [4, 12] of the same compound?
Answer: 1404

Question: What about the “GP IIIa (peak) log fluorescence intensity” value [4, 12] of the same compound?
Answer: 1370

Question: And the “GP IIIa (mean) log fluorescence intensity” value [4, 13]?
Answer: 1321

Question: And the “GP IIIa (peak) log fluorescence intensity” value [4, 13]?
Answer: 1310

Question: What about the “GP IIb/IIIa expression, flow cytometric graph (FIG. 9), in words” value ([5]; 44.7, 85.3 ng/mL of sertraline) of the same compound?
Answer: dose dependent decrease in the expression

Question: What about the “GP IIb/IIIa (mean) log fluorescence intensity” value [5, 8] of the same compound?
Answer: 1038

Question: What about the “GP IIb/IIIa (peak) log fluorescence intensity” value [5, 8] of the same compound?
Answer: 991

Question: What about the “GP IIb/IIIa (mean) log fluorescence intensity” value [5, 9] of the same compound?
Answer: 748

Question: What about the “GP IIb/IIIa (peak) log fluorescence intensity” value [5, 9] of the same compound?
Answer: 518

Question: And the “GP IIb/IIIa (mean) log fluorescence intensity” value [5, 10]?
Answer: 533

Question: And the “GP IIb/IIIa (peak) log fluorescence intensity” value [5, 10]?
Answer: 421

Question: What about the “GP IIb/IIIa (mean) log fluorescence intensity” value [5, 11] of the same compound?
Answer: 911

Question: And the “GP IIb/IIIa (peak) log fluorescence intensity” value [5, 11]?
Answer: 679

Question: What about the “GP IIb/IIIa (mean) log fluorescence intensity” value [5, 12] of the same compound?
Answer: 962

Question: What about the “GP IIb/IIIa (peak) log fluorescence intensity” value [5, 12] of the same compound?
Answer: 798

Question: And the “GP IIb/IIIa (mean) log fluorescence intensity” value [5, 13]?
Answer: 1035

Question: What about the “GP IIb/IIIa (peak) log fluorescence intensity” value [5, 13] of the same compound?
Answer: 922

Question: And the “surface expression of glycoprotein IIb/IIIa complex (GP IIb/IIIa), in words” value [5, 14]?
Answer: diminished surface expression

Question: What about the “CPIa-IIa (mean) log fluorescence intensity” value [6, 8] of the same compound?
Answer: 51

Question: And the “CPIa-IIa (peak) log fluorescence intensity” value [6, 8]?
Answer: 47

Question: And the “CPIa-IIa (mean) log fluorescence intensity” value [6, 9]?
Answer: 49

Question: And the “CPIa-IIa (peak) log fluorescence intensity” value [6, 9]?
Answer: 37

Question: And the “CPIa-IIa (mean) log fluorescence intensity” value [6, 10]?
Answer: 35

Question: And the “CPIa-IIa (peak) log fluorescence intensity” value [6, 10]?
Answer: 30

Question: What about the “CPIa-IIa (mean) log fluorescence intensity” value [6, 11] of the same compound?
Answer: 63

Question: And the “CPIa-IIa (peak) log fluorescence intensity” value [6, 11]?
Answer: 55

Question: And the “CPIa-IIa (mean) log fluorescence intensity” value [6, 12]?
Answer: 70

Question: What about the “CPIa-IIa (peak) log fluorescence intensity” value [6, 12] of the same compound?
Answer: 60

Question: And the “CPIa-IIa (mean) log fluorescence intensity” value [6, 13]?
Answer: 67

Question: What about the “CPIa-IIa (peak) log fluorescence intensity” value [6, 13] of the same compound?
Answer: 60

Question: What about the “surface expression of very late antigen-2 (VLA-2, or GPIb-IIa), in words” value [6, 14] of the same compound?
Answer: diminished surface expression

Question: And the “CD9 (mean) log fluorescence intensity” value [7, 8]?
Answer: 948

Question: And the “CD9 (peak) log fluorescence intensity” value [7, 8]?
Answer: 938

Question: What about the “CD9 (mean) log fluorescence intensity” value [7, 9] of the same compound?
Answer: 905

Question: What about the “CD9 (peak) log fluorescence intensity” value [7, 9] of the same compound?
Answer: 777

Question: What about the “CD9 (mean) log fluorescence intensity” value [7, 10] of the same compound?
Answer: 742

Question: And the “CD9 (peak) log fluorescence intensity” value [7, 10]?
Answer: 716

Question: And the “CD9 (mean) log fluorescence intensity” value [7, 11]?
Answer: 949

Question: And the “CD9 (peak) log fluorescence intensity” value [7, 11]?
Answer: 1027

Question: And the “CD9 (mean) log fluorescence intensity” value [7, 12]?
Answer: 1015

Question: And the “CD9 (peak) log fluorescence intensity” value [7, 12]?
Answer: 850

Question: And the “CD9 (mean) log fluorescence intensity” value [7, 13]?
Answer: 984

Question: And the “CD9 (peak) log fluorescence intensity” value [7, 13]?
Answer: 964

Question: And the “surface expression of CD9 (p24), in words” value [7, 14]?
Answer: diminished surface expression
